Measured values from US20150126464A1, “THERAPEUTIC DRUG AND THERAPEUTIC METHOD FOR NEUROLOGICAL DISEASES INCLUDING ALZHEIMER'S DISEASE ASSOCIATED WITH 1,25D3-MARRS” (priority 2013, published 2015).

Test system: 5XFAD mice
Test: Open field locomotion test in 5XFAD mice
Format: in vivo, mouse
Conditions: i.p. 20 days, diosgenin 10 μmol/kg, memantine hydrochloride 200 μmol/kg/day, among the four groups
Method: Diosgenin was dissolved in dimethyl sulfoxide (DMSO) at 10 times the final concentration to give a stock solution. The stock solution was diluted in physiological saline to the final concentration immediately before treatment. The diosgenin solution was intraperitoneally administered to 5XFAD mice once a day (10 μmol/kg=4.14 mg/kg) for 20 days. On the last day of administration (Day 20), each mouse was housed in a separate open-field box made of polyvinyl chloride (33 cm×[…]; height: 26.5 cm) and habituated to the environment for 10 min.
For each mouse of Example 1, Comparative Examples 1 and 2, and Reference Example 1, the path during the 10-minute habituation was tracked using a digital camera system. The distance each mouse traveled during the 10 minutes was analyzed as locomotion activity with EthoVision 3.0 (Noldus, Wageningen, The Netherlands). The next day, a novel object recognition test was performed as described in Joyashiki, E. et al., Int J Neurosci, 121, 181-190, 2011 and Tohda, C. et al., Int J Neurosci, 121, 641-648, 2011, written by the inventors and others. Testing was carried out in a dimly illuminated room. […] In the present invention, the ratio (%) of the exploration time for the novel object to the total exploration time was calculated as an exploration preferential index. […]

C[C@@H]1CC[C@@]2(OC1)O[C@H]1C[C@H]3[C@@H]4CC=C5C[C@@H](O)CC[C@]5(C)[C@H]4CC[C@]3(C)[C@H]1[C@@H]2C [diosgenin]
traveling speed and distance in open field locomotion test: no significant differences
